Experimental data: patent publication US20210284618A1, “FURANOCHALCONES AS INHIBITORS OF CYP1A1, CYP1A2 AND CYP1B1 FOR CANCER CHEMOPREVENTION” (Council of Scientific & Industrial Research, priority 2016, published 2021)

Key:
[1] = target: T1, CYP2C8 (Homo sapiens, UniProt P10632); test: CYP2C8 inhibition in Saccharosomes; assay type: biochemical; conditions: Saccharosomes containing CYP2C8
T1 construct: host or cells: yeast microsomes (Saccharosomes)
T1 sequence (P10632 1-490): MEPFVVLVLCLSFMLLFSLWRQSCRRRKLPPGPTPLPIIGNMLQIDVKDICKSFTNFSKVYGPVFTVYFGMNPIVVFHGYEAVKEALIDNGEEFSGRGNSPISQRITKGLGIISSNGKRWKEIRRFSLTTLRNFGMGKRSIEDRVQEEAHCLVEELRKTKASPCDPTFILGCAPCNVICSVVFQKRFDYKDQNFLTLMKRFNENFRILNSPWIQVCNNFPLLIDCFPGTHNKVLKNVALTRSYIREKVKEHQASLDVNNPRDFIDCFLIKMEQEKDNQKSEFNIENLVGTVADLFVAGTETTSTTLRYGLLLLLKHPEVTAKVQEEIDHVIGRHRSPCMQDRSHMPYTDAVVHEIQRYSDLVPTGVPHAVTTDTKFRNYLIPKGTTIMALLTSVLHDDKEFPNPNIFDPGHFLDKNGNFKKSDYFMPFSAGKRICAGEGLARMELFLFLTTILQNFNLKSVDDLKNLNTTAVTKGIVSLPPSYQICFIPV

[2] = target: T2, CYP1A1 (Homo sapiens, UniProt P04798); test: CYP1A1 inhibition in HEK293 cells transfected with pcDNA3.1/CYP1A1 (live cells); assay type: cell-based
T2 construct: host or cells: yeast microsomes (Saccharosomes)
T2 sequence (P04798 1-512): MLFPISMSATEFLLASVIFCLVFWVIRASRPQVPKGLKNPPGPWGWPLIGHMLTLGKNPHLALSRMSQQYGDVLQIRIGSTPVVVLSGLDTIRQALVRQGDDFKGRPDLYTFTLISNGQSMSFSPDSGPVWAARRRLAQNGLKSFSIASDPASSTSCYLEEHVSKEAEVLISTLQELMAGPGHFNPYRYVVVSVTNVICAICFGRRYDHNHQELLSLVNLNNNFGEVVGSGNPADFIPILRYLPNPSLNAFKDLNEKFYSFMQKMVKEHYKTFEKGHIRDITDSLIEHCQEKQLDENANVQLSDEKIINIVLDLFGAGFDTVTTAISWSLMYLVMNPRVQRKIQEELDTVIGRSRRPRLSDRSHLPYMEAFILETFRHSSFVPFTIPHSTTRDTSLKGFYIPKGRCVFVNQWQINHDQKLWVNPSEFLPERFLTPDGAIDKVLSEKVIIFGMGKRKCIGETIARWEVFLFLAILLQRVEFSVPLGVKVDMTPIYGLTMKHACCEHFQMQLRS
Method: Example 26. In-vitro CYP450 inhibition in HEK293 cells transfected with pcDNA3.1/CYP1A1 against 5 μM EROD. […] The HEK293 cells used here was procured from ‘European Collection of Authenticated Cell Cultures’ (catalog number. ECACC 85120602).

[3] = target: T3, CYP2A6 (Homo sapiens, UniProt P11509); test: CYP2A6 inhibition in Saccharosomes; assay type: biochemical
T3 construct: host or cells: yeast microsomes (Saccharosomes)
T3 sequence (P11509 1-494): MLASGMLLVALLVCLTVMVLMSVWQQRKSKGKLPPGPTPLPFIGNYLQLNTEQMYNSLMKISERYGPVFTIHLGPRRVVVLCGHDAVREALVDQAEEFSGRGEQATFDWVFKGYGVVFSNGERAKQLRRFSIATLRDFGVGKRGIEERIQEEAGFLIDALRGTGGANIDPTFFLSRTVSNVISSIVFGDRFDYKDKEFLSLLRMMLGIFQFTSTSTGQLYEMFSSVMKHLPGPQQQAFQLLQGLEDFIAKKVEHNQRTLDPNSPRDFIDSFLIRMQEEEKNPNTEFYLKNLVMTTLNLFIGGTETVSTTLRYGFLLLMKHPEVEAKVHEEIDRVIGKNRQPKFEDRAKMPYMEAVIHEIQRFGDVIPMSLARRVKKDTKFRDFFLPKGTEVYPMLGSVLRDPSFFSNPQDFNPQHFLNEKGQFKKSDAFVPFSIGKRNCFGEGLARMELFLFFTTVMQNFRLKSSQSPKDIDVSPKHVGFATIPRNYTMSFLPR
Method: (§1) Example 25. IC50 determination for best compound against CYP1A1, CYP1B1 and other CYPs in Saccharosomes. Compounds were serially diluted to six different concentrations with 10% DMSO in a Sero-Well white microplate. The experiment was performed in a similar way as described above in examples 23 and 24.

[4] = target: T4, CYP1A2 (Homo sapiens, UniProt P05177); test: CYP1A2 inhibition in Saccharosomes; assay type: biochemical
T4 construct: host or cells: yeast microsomes (Saccharosomes)
T4 sequence (P05177 1-516): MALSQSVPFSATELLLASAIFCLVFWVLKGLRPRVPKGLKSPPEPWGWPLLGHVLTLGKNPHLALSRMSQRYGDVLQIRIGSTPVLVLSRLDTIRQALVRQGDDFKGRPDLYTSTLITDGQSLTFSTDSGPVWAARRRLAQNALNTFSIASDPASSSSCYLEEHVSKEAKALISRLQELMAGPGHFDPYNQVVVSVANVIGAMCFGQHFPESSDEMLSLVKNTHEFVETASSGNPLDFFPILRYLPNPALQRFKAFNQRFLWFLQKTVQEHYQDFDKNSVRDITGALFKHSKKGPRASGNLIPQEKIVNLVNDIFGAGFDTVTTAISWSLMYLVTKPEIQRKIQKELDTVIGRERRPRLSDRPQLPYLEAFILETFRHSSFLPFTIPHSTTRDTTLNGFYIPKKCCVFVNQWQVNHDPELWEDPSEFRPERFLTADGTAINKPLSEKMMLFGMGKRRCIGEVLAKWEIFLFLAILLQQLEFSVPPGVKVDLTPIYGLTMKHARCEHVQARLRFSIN
Method: as §1

[5] = target: T5, CYP2C18 (Homo sapiens, UniProt P33260); test: CYP2C18 inhibition in Saccharosomes; assay type: biochemical; conditions: Saccharosomes containing CYP2C18
T5 construct: host or cells: yeast microsomes (Saccharosomes)
T5 sequence (P33260 26-490): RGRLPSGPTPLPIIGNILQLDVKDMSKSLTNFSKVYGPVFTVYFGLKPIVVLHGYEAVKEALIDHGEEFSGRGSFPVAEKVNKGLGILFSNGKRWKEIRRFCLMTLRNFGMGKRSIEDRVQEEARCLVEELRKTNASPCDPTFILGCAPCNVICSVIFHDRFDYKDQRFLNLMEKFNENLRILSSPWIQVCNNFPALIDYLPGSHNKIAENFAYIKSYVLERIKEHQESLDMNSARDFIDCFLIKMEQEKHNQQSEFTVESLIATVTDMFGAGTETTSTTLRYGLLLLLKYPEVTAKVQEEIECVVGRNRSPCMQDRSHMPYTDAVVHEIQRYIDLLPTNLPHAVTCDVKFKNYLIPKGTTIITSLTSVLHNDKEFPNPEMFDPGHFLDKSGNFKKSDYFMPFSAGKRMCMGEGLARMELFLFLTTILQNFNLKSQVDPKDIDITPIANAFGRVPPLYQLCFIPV

[6] = target: T6, CYP3A4 (Homo sapiens, UniProt P08684); test: CYP3A4 inhibition in Saccharosomes; assay type: biochemical
T6 construct: host or cells: yeast microsomes (Saccharosomes)
T6 sequence (P08684 whole entry): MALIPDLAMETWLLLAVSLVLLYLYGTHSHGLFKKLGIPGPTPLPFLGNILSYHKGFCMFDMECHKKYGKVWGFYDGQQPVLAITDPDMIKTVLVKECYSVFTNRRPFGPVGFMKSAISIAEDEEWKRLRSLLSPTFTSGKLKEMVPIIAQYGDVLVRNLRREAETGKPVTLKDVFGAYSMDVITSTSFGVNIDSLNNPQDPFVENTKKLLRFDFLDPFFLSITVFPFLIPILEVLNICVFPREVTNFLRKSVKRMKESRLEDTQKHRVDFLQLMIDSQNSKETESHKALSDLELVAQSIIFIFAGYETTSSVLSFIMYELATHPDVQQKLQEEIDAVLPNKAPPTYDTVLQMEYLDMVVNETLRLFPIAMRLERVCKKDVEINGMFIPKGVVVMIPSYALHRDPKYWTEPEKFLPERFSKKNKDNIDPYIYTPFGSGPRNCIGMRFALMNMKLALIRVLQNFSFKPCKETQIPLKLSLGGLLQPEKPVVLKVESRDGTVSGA
Method: as §1

inhibition at 20 µM [1]: 24% | IC50 [2]: 470 nM | % inhibition of CYP1A1 in HEK293 cells at 10 μM ([2]; 10 μM, 5 μM EROD): 99.2% | inhibition at 10 μM ([2]; human, HEK293 cells transfected with pcDNA3.1/CYP1A1 (live cells), probe EROD (5 μM), % inhibition of CYP1A1 in HEK293 cells at 10 μM, 10 μM, 5 μM EROD): > 80% | Inhibition of CYP2A6 at 20 μM [3]: No Inhibition | IC50 [4]: 166 nM | inhibition at 20 µM [5]: 63% | IC50 [6]: 3000 nM
Compound: COc1c(C(=O)/C=C/c2cccnc2)c(O)c(OC)c2occc12 [Compound 8, 3-(4,7-dimethoxy-6-hydroxybenzofuran-5-yl)-1-(pyridin-3-yl)-3-oxopropene]
